≈ marks a conversion by molar mass, not a printed value. Calls of active or inactive are those of the source. The rule behind the calls is not given here.
Tests used:
Format in all cases: functional
Staphylococcus aureus = assay: Antibacterial activity against Staphylococcus aureus ATCC 25923 after 16 hrs by microdilution assay; conditions: ATCC 25923, 16 h
Bacillus subtilis = assay: Antibacterial activity against Bacillus subtilis ATCC 6633 after 16 hrs by microdilution assay; conditions: ATCC 6633, 16 h
Escherichia coli = assay: Antibacterial activity against Escherichia coli ATCC 25922 after 16 hrs by microdilution assay; conditions: ATCC 25922, 16 h
Candida albicans = assay: Antifungal activity against Candida albicans ATCC 10259 after 3 days by microdilution assay
Penicillium expansum = assay: Antifungal activity against Penicillium expansum ATCC 7861 after 3 days by microdilution assay
Aspergillus niger = assay: Antifungal activity against Aspergillus niger ATCC 6275 after 3 days by microdilution assay
[1] = test system: Trichophyton mentagrophytes; assay: Antifungal activity against Trichophyton mentagrophytes ATCC 9533 after 3 days by microdilution assay
P388 = assay: Cytotoxicity against mouse P388 cells

What does the source list for `COc1ccc(C2COc3cc(O)ccc3C2)c(OC)c1O` (racemic) [MUCRONULATOL(+/-)]?
MIC (Staphylococcus aureus): > 100 µg/mL; MIC (Bacillus subtilis): > 100 µg/mL; MIC (Escherichia coli): 50 µg/mL (≈ 165 µM); MIC (Candida albicans; ATCC 10259, 72 h): > 100 µg/mL; MIC (Penicillium expansum; ATCC 7861, 72 h): > 100 µg/mL; MIC (Aspergillus niger; ATCC 6275, 72 h): > 100 µg/mL; MIC ([1]; ATCC 9533, 72 h): 25 µg/mL (≈ 82.7 µM)

For `COc1ccc(-c2coc3cc(O)ccc3c2=O)cc1` [FORMONONETIN], which MIC (Staphylococcus aureus) is on record?
The MIC was > 100 µg/mL.

And the MIC (Bacillus subtilis)?
The MIC was > 100 µg/mL.

And the MIC (Escherichia coli)?
The MIC was 100 µg/mL (≈ 373 µM).

What about the MIC (Candida albicans; ATCC 10259, 72 h) of the same molecule?
Its MIC is > 100 µg/mL.

What about the MIC (Penicillium expansum; ATCC 7861, 72 h) of the same molecule?
The MIC was 50 µg/mL (≈ 186 µM).

What about the MIC (Aspergillus niger; ATCC 6275, 72 h) of the same molecule?
Its MIC is 100 µg/mL (≈ 373 µM).

And the MIC ([1]; ATCC 9533, 72 h)?
Its MIC is > 100 µg/mL.

How did the MIC (Staphylococcus aureus) turn out when `COc1ccc([C@@H]2COc3cc(O)ccc3C2)c(O)c1` was run?
The MIC was > 100 µg/mL.

And the MIC (Bacillus subtilis)?
Its MIC is 50 µg/mL (≈ 184 µM).

What about the MIC (Escherichia coli) of the same molecule?
The MIC was 50 µg/mL (≈ 184 µM).

And the MIC (Candida albicans; ATCC 10259, 72 h)?
The MIC was > 100 µg/mL.

And the MIC (Penicillium expansum; ATCC 7861, 72 h)?
The MIC was > 100 µg/mL.

What about the MIC (Aspergillus niger; ATCC 6275, 72 h) of the same molecule?
Its MIC is > 100 µg/mL.

And the MIC ([1]; ATCC 9533, 72 h)?
The MIC was 25 µg/mL (≈ 91.8 µM).

What does the source list for `COC1=CC(=O)C([C@@H]2COc3cc(O)ccc3C2)=CC1=O`?
MIC (Staphylococcus aureus): 6 µg/mL (≈ 21 µM); MIC (Bacillus subtilis): 3 µg/mL (≈ 10.5 µM); MIC (Escherichia coli): 6 µg/mL (≈ 21 µM); MIC (Candida albicans; ATCC 10259, 72 h): 50 µg/mL (≈ 175 µM); MIC (Penicillium expansum; ATCC 7861, 72 h): > 100 µg/mL; MIC (Aspergillus niger; ATCC 6275, 72 h): 100 µg/mL (≈ 349 µM); MIC ([1]; ATCC 9533, 72 h): 25 µg/mL (≈ 87.3 µM); EC50 (P388; read-out: ED50 (the source's name)): 0.5 µg/mL (≈ 1.75 µM)

Which MIC (Staphylococcus aureus) does the source give for `COC1=CC(=O)C(c2coc3cc(O)cc(O)c3c2=O)=CC1=O` here?
Its MIC is > 100 µg/mL.

What about the MIC (Bacillus subtilis) of the same molecule?
The MIC was 100 µg/mL (≈ 318 µM).

And the MIC (Escherichia coli)?
Its MIC is 50 µg/mL (≈ 159 µM).

And the MIC (Candida albicans; ATCC 10259, 72 h)?
The MIC was > 100 µg/mL.

What about the MIC (Penicillium expansum; ATCC 7861, 72 h) of the same molecule?
The MIC was > 100 µg/mL.

And the MIC (Aspergillus niger; ATCC 6275, 72 h)?
The MIC was > 100 µg/mL.

And the MIC ([1]; ATCC 9533, 72 h)?
The MIC was 100 µg/mL (≈ 318 µM).

What about the ED50 (P388) of the same molecule?
Its ED50 is “inactive”.

For NYSTATIN, which MIC (Candida albicans) is on record?
The MIC was 1.5 µg/mL.

And the MIC (Penicillium expansum)?
The MIC was 6 µg/mL.

And the MIC (Aspergillus niger)?
The MIC was 6 µg/mL.

What about the MIC [1] of the same molecule?
Its MIC is 3 µg/mL.

`CN(C)[C@@H]1C(O)=C(C(N)=O)C(=O)[C@@]2(O)C(O)=C3C(=O)c4c(O)cccc4[C@@](C)(O)[C@H]3C[C@@H]12` [TETRACYCLINE] was tested. Which MIC (Staphylococcus aureus) did it give?
The MIC was 0.6 µg/mL (≈ 1.35 µM).

What about the MIC (Bacillus subtilis) of the same molecule?
The MIC was 2.5 µg/mL (≈ 5.63 µM).

And the MIC (Escherichia coli)?
Its MIC is 1.2 µg/mL (≈ 2.7 µM).
